Assay results from publication PMC6812009, “Covalent Aurora A regulation by the metabolic integrator coenzyme A” (Redox Biology, 2019).

Experiments:
Assay in all cases: Kinase profiling screen (radioactive filter-binding assay)
Assay type in all cases: biochemical
MKK2 = MKK2 (Homo sapiens, UniProt P36507); settings: 100 μM compound, 5 μM ATP; read-out: Kinase activity, % of activity in the absence of inhibitor
Method in brief: (§1)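 Single-point in vitro screen: 100 μM final of CoA, dpCoA and ADP, run in duplicate against recombinant kinase with a model substrate and optimal ATP.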

MAPKAP-K2 = MAPKAP-K2 (Homo sapiens, UniProt P49137); settings: 100 μM compound, 20 μM ATP; read-out: Kinase activity, % of activity in the absence of inhibitor
MAPKAP-K2, sequence (P49137 whole entry): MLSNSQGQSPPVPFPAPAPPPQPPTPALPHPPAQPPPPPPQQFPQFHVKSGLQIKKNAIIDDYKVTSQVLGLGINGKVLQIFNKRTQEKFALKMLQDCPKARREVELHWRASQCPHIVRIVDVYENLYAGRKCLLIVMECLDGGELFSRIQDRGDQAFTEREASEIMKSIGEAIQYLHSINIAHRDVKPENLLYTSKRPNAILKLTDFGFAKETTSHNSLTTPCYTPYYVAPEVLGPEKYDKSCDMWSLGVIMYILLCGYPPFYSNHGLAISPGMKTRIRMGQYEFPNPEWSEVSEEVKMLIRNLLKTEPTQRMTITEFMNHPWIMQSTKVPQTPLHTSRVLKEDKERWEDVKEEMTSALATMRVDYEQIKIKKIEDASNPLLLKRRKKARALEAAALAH
Method in brief: as §1

HIPK1 = HIPK1 (Homo sapiens, UniProt Q86Z02); settings: 100 μM compound, 20 μM ATP; read-out: Kinase activity, % of activity in the absence of inhibitor
HIPK1, sequence (Q86Z02 whole entry): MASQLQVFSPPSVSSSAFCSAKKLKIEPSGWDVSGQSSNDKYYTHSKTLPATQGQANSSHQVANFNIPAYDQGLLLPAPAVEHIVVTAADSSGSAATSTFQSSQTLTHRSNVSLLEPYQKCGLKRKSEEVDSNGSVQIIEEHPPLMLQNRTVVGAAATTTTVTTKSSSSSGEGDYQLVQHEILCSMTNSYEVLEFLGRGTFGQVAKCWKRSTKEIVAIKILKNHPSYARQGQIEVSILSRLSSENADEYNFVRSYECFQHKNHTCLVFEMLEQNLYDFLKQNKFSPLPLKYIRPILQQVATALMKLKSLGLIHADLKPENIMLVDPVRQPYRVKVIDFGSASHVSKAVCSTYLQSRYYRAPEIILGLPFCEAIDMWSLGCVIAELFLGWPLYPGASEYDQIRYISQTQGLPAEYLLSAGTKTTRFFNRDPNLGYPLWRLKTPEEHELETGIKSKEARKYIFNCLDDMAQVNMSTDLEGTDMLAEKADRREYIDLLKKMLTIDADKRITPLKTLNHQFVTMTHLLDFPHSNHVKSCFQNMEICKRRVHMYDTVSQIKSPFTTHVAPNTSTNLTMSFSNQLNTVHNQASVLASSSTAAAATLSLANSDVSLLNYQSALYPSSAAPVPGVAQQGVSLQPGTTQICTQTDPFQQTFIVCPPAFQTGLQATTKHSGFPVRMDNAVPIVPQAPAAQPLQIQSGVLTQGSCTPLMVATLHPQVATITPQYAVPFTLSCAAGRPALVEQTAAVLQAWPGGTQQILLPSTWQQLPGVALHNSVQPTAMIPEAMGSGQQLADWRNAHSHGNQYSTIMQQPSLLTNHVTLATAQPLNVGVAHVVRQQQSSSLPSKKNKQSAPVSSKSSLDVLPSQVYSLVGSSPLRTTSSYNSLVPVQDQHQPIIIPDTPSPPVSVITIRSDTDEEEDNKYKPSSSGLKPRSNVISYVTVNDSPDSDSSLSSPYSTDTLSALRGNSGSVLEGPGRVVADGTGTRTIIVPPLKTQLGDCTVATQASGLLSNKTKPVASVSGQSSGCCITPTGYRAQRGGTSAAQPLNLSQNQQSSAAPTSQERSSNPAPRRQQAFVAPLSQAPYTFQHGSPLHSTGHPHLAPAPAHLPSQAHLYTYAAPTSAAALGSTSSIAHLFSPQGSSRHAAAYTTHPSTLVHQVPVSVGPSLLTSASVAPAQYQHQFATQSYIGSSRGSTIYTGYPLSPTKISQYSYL
Method in brief: as §1

GCK = molecular target: T1, GCK (Homo sapiens, UniProt Q12851); settings: 100 μM compound, 20 μM ATP; read-out: Kinase activity, % of activity in the absence of inhibitor
T1 sequence (Q12851 1-820): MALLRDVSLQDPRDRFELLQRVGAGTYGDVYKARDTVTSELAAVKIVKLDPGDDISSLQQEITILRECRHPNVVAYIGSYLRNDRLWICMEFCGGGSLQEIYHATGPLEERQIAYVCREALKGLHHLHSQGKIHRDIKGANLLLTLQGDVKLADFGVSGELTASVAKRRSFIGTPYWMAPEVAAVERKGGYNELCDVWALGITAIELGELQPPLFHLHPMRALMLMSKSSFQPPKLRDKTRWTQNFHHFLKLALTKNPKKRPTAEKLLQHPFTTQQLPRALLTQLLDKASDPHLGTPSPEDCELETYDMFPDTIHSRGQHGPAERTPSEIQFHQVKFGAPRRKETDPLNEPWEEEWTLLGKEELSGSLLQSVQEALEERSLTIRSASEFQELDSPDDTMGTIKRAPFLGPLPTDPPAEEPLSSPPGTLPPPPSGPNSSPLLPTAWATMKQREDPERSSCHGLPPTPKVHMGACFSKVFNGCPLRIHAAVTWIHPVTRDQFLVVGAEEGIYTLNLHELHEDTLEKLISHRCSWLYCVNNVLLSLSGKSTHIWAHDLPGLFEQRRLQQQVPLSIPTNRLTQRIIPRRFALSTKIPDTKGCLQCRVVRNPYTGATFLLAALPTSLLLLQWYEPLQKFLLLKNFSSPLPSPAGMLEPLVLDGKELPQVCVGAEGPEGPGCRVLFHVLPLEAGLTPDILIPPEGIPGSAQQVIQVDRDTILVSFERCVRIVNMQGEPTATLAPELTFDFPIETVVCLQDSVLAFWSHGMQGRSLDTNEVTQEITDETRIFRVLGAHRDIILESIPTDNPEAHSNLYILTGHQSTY
Method in brief: as §1

EPH-B4 = molecular target: T2, EPH-B4 (Homo sapiens, UniProt P54760); settings: 100 μM compound, 50 μM ATP; read-out: Kinase activity, % of activity in the absence of inhibitor
T2 sequence (P54760 16-987): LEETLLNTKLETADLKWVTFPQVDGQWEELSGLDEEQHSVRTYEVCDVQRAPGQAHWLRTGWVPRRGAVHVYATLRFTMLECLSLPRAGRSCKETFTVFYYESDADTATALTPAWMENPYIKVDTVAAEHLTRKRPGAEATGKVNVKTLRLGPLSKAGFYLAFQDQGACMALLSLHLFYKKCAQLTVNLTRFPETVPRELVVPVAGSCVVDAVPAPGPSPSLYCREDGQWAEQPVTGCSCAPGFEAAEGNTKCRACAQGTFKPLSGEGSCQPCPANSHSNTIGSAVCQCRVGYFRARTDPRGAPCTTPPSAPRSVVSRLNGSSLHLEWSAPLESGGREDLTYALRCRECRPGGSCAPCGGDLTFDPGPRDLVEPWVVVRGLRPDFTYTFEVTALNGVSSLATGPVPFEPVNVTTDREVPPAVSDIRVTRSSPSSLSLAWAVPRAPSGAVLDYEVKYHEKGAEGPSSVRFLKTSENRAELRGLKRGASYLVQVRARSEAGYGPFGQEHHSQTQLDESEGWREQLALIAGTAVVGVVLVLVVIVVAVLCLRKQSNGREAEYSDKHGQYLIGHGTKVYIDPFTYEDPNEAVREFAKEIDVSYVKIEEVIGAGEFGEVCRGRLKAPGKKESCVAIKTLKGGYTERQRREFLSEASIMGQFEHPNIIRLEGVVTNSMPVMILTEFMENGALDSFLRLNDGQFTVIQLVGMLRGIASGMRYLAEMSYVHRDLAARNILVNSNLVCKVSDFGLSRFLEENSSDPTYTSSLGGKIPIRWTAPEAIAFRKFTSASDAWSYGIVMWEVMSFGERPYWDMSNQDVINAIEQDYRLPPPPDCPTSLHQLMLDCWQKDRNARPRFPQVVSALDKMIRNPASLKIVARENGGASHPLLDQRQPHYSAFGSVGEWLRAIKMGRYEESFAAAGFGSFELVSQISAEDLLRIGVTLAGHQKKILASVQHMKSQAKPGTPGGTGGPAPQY
Method in brief: as §1

S6K1 = S6K1 (Homo sapiens, UniProt P23443); settings: 100 μM compound, 20 μM ATP; read-out: Kinase activity, % of activity in the absence of inhibitor
S6K1, sequence (P23443 whole entry): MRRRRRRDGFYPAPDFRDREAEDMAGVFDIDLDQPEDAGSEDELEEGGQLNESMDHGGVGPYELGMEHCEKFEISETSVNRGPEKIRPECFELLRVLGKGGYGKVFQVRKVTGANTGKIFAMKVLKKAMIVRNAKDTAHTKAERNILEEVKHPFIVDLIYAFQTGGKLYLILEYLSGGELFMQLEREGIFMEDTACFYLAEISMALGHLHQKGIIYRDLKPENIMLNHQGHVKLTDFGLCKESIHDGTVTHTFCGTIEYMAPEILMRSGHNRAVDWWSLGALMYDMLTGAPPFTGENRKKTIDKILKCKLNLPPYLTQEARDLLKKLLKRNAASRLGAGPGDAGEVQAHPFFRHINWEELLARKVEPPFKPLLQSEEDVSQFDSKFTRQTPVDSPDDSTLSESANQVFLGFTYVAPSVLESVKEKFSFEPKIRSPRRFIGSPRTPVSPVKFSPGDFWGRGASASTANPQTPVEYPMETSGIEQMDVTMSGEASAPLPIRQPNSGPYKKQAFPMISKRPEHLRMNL
Method in brief: as §1

MKK2, sequence (P36507 whole entry): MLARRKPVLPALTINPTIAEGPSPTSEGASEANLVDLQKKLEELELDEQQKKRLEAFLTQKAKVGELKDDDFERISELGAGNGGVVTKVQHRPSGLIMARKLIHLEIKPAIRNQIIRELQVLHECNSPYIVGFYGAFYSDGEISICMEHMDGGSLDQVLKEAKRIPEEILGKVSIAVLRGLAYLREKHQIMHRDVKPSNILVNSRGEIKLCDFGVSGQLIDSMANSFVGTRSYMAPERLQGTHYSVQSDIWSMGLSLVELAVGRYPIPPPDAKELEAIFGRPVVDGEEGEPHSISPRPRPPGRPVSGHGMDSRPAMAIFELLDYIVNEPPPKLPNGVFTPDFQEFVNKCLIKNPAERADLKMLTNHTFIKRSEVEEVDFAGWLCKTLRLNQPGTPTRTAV

Structure (SMILES) | activity at 100 µM (MKK2) [%] | activity at 100 µM (MAPKAP-K2) [%] | activity at 100 µM (HIPK1) [%] | activity at 100 µM (GCK) [%] | activity at 100 µM (EPH-B4) [%] | activity at 100 µM (S6K1) [%]
Nc1ncnc2c1ncn2C1OC(COP(=O)(O)OP(=O)(O)O)C(O)C1O (stereo not drawn) [ADP] | 35.4 | 53 | 31.7 | 56.5 | 9.8 | 35.5
CC(C)(COP(=O)(O)OP(=O)(O)OC[C@H]1O[C@@H](n2cnc3c(N)ncnc32)[C@H](O)[C@@H]1OP(=O)(O)O)[C@@H](O)C(=O)NCCC(=O)NCCS [CoA, Coenzyme A] | 103 | 93.1 | 115 | 109 | 107 | 89.1
CC(C)(COP(=O)(O)OP(=O)(O)OCC1OC(n2cnc3c(N)ncnc32)C(O)C1O)C(O)C(=O)NCCC(=O)NCCS (stereo not drawn) [dpCoA, dephospho-CoA] | 53 | 81.7 | 92.8 | 71.2 | 62.1 | 30.5
